Columns and labels:
[1] = in vivo; cited from earlier work
[2] = swine
From the text: The invention is further described more in detail by the following examples. In the examples a device according to FIG. 2 was used. The electrodes are made of a carbon fiber textile, onto which a hydrophobic micro-porous layer of teflon is fitted. As model agent was used tacrine, which is a cationic drug. The chamber section 13a, the electrolyte space, comprised a 0.15 M aqueous solution of sodium sulphate and the chamber section 13b, the space comprising the active agent, comprised a 0.15 M aqueous solution of sodium chloride, which corresponds to a physiological salt solution. […] The membrane 15 was either a synthetic membrane (UC 101T) or swine skin. In the experiments were used Smopex®-ion exchanging fibres, made by Smoptech (Johnson Matthey).

passive flow [2]: 1.99 μg cm^−2h^−1
passive flow (slope) [2]: 1.81 μg cm^−2h^−1
Structure (SMILES): Nc1c2c(nc3ccccc13)CCCC2 [tacrine]
clearance CL [1]: 150 dm^3h^−1
therapeutic window [1]: 5-30 μg dm^−3
